# Activity calls are given as the source filed them. How the calls were made is not given here.
# Molecular target: Ras-related protein Rab-2A (Canis lupus familiaris) (UniProt P61105)
# Assay: Rab2 wildtype GTP-binding inhibitors, SAR follow-up, biochemical, additional analogs, bead-based flow cytometry, multiplex (AID 2046)
# Conditions: Rab2 wt; for Ki: measured here: Ki from fitted EC50
# Chain of Ras-related protein Rab-2A (Canis lupus familiaris) (P61105 whole entry, looked up): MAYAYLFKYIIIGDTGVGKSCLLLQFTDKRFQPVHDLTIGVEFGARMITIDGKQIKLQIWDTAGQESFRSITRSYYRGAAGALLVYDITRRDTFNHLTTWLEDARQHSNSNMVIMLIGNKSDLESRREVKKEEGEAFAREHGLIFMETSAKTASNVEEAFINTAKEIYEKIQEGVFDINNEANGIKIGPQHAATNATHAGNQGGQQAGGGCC
EC50,Ki [µM],Structure (SMILES)
inactive,,O=C1N=c2ccccc2=C1c1[nH]c(=O)[nH]c1O
inactive,,O=C1C(c2c(O)[nH]c3c(Br)cccc23)=Nc2ccccc21
,0.11,COc1ccc2cc([C@@H](C)C(=O)O)ccc2c1
inactive,,O=C1C(c2c(O)[nH]c3c(F)cccc23)=Nc2ccccc21
inactive,,O=Nc1c(-c2c(O)[nH]c3c(F)cccc23)[nH]c2ccccc12
inactive,,O=C1C(c2c(O)[nH]c3c(Cl)cccc23)=Nc2ccccc21
inactive,,O=Nc1c(-c2c(O)[nH]c3c(Cl)cccc23)[nH]c2ccccc12
inactive,4.15,O=Nc1c(-c2c(O)[nH]c3ccc(Br)cc23)[nH]c2ccccc12
inactive,,O=Nc1c(-c2c(O)[nH]c3ccccc23)[nH]c2ccccc12
inactive,,O=C1N=c2ccccc2=C1c1[nH]c(=S)[nH]c1O
inactive,,O=C1C(c2c(O)[nH]c3ccccc23)=Nc2ccccc21
inactive,,O=C1C(c2c(O)[nH]c3ccc(Br)cc23)=Nc2ccccc21
inactive,4.19,O=Nc1c(-c2c(O)[nH]c3c(Br)cccc23)[nH]c2ccccc12

# — PubChem BioAssay AID2046 (NMMLSC, 2009)
